Assay results taken from patent US6586596B2, “Acetylcholine enhancers” (priority 1998, dated 2003).
pIC50, pKi: −log10 of the molar value.

Key:
[1] = target: T1, peripheral 5-HT3 receptor (Rattus norvegicus, UniProt P35563); assay: 5-HT-evoked von Bezold-Jarish Effect (B.J.E.) in anesthetized rats; format: in vivo; conditions: Cm.A 3 to 10 mg/kg; for inhibition of 5-HT-evoked B.J.E. (reflex bradycardia): i.v. pretreatment, E2020 0.1~1 mg/kg, 5-HT 20 μg/kg i.v.; for blood pressure, heart rate and other signs: i.v., THA 10 mg/kg, E2020 higher than 1 mg/kg, data not shown
T1 construct: from tissue; host or cells: whole anesthetized rat (peripheral receptors)
T1 sequence (P35563 24-483): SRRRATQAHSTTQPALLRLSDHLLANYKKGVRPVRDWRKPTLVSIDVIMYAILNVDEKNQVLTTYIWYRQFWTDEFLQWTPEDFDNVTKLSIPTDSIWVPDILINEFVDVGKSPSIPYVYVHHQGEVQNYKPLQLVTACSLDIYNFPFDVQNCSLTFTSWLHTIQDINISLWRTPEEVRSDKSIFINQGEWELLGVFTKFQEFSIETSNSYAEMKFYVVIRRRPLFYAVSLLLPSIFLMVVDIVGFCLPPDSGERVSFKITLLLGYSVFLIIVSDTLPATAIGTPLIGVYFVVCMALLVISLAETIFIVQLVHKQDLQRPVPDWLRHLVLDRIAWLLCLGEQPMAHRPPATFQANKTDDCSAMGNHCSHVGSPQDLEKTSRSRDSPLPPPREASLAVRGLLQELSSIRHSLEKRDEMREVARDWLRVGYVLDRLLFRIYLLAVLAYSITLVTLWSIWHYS
Protocol: A bolus i.v. injection of serotonin (5-HT) (20 μg/kg) caused reflex bradycardia transiently (von Bezold—Jarish Effect: B.J.E.) via activation of peripheral 5-HT3 receptor in anesthetized rats.

BF-lesioned rats = assay: Water maze, BF lesion-induced deficit in spatial learning; conditions: oral; Cm.A 0.3, 1.0 and 3.0 mg/kg/day, THA 1.0 mg/kg/day, E2020 0.3 and 1.0 mg/kg/day
Protocol: For each training trial, the rat was placed in the water (22° C.) such that the animal faced the wall of a circular pool (150 cm in diameter, 45 cm in height), and started at one of five starting points (selected randornly). In each trial, the latency period to escape onto the hidden platform (fixed in the middle of one quadrant, 2 cm below the surface of water) was recorded. These procedures were repeated once or twice a day during the experimental period.

5-HT3 receptor = target: T2, 5-HT3 receptor (Mus musculus, UniProt P23979); assay: serotonin 5-HT3 binding assay (NovaScreen), NIE-115 cells; conditions: 20 mM HEPES pH 7.4, 150 mM NaCl, 25° C., 60 minutes
T2 construct: The receptor source was NIE-115 cells; host or cells: NIE-115 cells
T2 sequence (P23979 24-489): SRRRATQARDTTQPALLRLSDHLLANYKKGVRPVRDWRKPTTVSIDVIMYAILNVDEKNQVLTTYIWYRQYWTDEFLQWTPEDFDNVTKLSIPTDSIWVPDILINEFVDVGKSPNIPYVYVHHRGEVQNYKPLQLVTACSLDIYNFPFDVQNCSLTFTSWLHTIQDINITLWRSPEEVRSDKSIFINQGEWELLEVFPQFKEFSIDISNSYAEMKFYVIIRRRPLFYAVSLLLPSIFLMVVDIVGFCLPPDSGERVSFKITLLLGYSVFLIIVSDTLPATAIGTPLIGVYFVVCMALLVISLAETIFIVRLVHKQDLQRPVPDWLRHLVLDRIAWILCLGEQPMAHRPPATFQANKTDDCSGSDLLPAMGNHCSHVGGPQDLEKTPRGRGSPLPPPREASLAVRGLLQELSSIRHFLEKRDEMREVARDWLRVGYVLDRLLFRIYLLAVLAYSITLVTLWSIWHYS
Protocol: Binding affinity of a variety of compounds, including Cm.A, for the 5-HT3 receptor was investigated using a commercially available serotonin 5-HT3 binding assay (NovaScreen, Hanover, Md.). The receptor source was NIE-115 cells (See Lunnis, S. C. R. and Kilparick, G. J., 189: Evr. Jrnl. Pharmacol. 223 (1990); and Hoyer, D. and Heijt, H. C., 33 Mol. Pharmacol., 303 (1988)). The reference compound utilized was “MDL 72222,” a 5-HT3 receptor antagonist. Reactions were carried out in 20 mM HEPES (pH 7.4) containing 150 mM NaCl at 25° C. for 60 minutes. The reaction was terminated by rapid vacuum filtration onto glass fiber filters. Radioactivity trapped onto the filters was determined and compared with the control values.

Cynomologous monkeys [2] = assay: Hepatotoxic analysis, two-week oral study; format: in vivo; conditions: monkey, in vivo, po, 5 mg/kg/day
Description: The following parameters were examined: body weight, clinical signs, food consumption, blood biochemistry (GOT, GPT, ALP, LDH, γ-GTP, ChE, Bil, T.Pro, Alb, A/G ratio, T.Cho, NEFA, TG). After the administration period, the animals were sacrificed and autopsied. Organs and tissues were weighed, then examined histopathologically.

Cynomologous monkeys [3] = assay: Hepatotoxic analysis, four-week oral study; format: in vivo
Protocol: During the testing period, these animals were dosed with three different regimens: first, animals were dosed with 10 mg/kg/day for 7 days, followed by 32 days-washout period, second, animals were dosed with 5 mg/kg/day for 14 days, and thereafter the animals were dosed with 10 mg/kg/day for 7 days. The following parameters were examined: body weight, clinical signs, food consumption, blood biochemistry (GOT, GPT, ALP, LDH, γ-GTP, ChE, Bil, T.Pro, Alb, A/G ratio, T.Cho, NEFA, TG).

[4] = tested on: extracellular levels of ACh in striatum; assay: ACh release in striatum, microdialysis in freely moving rats; format: in vivo
Protocol: ACh content in perfusate obtained from striatum (Bregma, A: 0.2 mm, L: 3.0 mm, H: 4.0 mm) of brain were continuously detected by means of HPLC and ECD through the microdialysis system using freely moving rats. See Messamore, E., et al, 32 Neuropharmacol. […] After an equilibration period of more than 2 hours, five fractions were allowed to obtain basal ACh content. Compounds were injected i.p., and thereafter, a microdialytic analysis was conducted for 3 hours.

[5] = tested on: extracellular levels of ACh in hippocampus; assay: ACh release in hippocampus, microdialysis in freely moving rats; format: in vivo
Protocol: ACh content in perfusate obtained from hippocampus (Bregma, A: −5.8 mm, L: 5.0 mm, H: 4.0 mm) of brain were continuously detected by means of HPLC and ECD through the microdialysis system using freely moving rats (See Messamore and Kawashima, supra). After an equilibration period, five fractions were allowed to obtain basal ACh content. Test substances were injected i.p., and thereafter, microdialytic analysis was conducted for 3 hr.

[6] = tested on: scopolamine-induced spatial learning deficit; assay: Water maze, scopolamine-induced deficit in spatial learning; format: in vivo, rats; conditions: p.o. 60 minutes before each trial; Cm.A 1.0 mg/kg/day; scopolamine 0.5 mg/kg i.p.
Protocol: A total of 6 trials (2 trials on 1st day, and 1 trial after 2nd day) were conducted to observe the effects of the test compounds. Scopolamine (0.5 mg/kg, i.p.) and the test compounds (p.o.) were administered 30 and 60 minutes before each trial, respectively.

Row | SMILES | inhibition of 5-HT-evoked B.J.E. (reflex bradycardia) [1] | blood pressure, heart rate and other signs [1] | deficit of spatial learning (escape latency) (BF-lesioned rats) | pIC50 (5-HT3 receptor; read-out: IC50) | pKi (5-HT3 receptor; read-out: Ki) | Clinical signs softstool (Cynomologous monkeys [2]) | Clinical signs vomiting (Cynomologous monkeys [2]) | Food consumption (Cynomologous monkeys [2]) | Blood biochemistry (Cynomologous monkeys [3]; F, oral, four weeks) | Clinical signs softstool (Cynomologous monkeys [3]; monkey, in vivo, po) | clinical signs (Cynomologous monkeys [3]; monkey, in vivo, po) | food consumption and body weight (Cynomologous monkeys [3]; monkey, in vivo, po) | blood biochemical tests (Cynomologous monkeys [3]; oral, four weeks) | centrally acting cholinergic symptoms (tremor, chewing and yawning) ([4]; rat, in vivo, ip) | increase of ACh content compared with Cm.A ([4]; striatum, young rats, i.p.) | increase of ACh content compared with Cm.A ([5]; hippocampus, i.p.) | centrally acting cholinergic symptoms (tremor, chewing and yawning) ([5]; rat, in vivo, ip) | deficit in spatial learning (escape latency) [6]
1 | COc1cc2c(cc1OC)C(=O)C(CC1CCN(Cc3ccccc3)CC1)C2 (stereo not drawn) [E2020, donepezil] | no inhibitory effect on B.J.E. | caused hypertension, salivation and tremor | also improved this type of deficit |  |  |  |  |  |  |  |  |  |  |  |  |  |  | 
2 | CN1[C@@H]2CC[C@H]1C[C@@H](OC(=O)c1cc(Cl)cc(Cl)c1)C2 [MDL 72222] |  |  |  | 8.05 | 8.38 |  |  |  |  |  |  |  |  |  |  |  |  | 
3 | Nc1c2c(nc3ccccc13)CCCC2 [THA, 1,2,3,4-tetrahydro-9-acridinamine, reference compound] | slight tendency to decrease the reflex | caused severe hypertension, salivation and tremor | also improved this type of deficit |  |  | − | + | − | ↓: CHE | +++ | severe vomiting and soft stools or diarrhea | decrease in body weight and food consumption | increase in TG and NEFA, decrease in ChE and T.Cho | greater severity as compared with Cm.A | increased the ACh content more potently and long-lastingly than Cm.A | somewhat weak | more apparent as compared with Cm.A | no significant effect
